Assay results published in the SangsterLogP compilation.

test: method code SF-AS, from DOI: 10.1081/jlc-120027619; conditions: not given

Row | SMILES | logP
1 | Cc1cccc2c3c(ccc12)C1=C(C(=O)C3=O)[C@@H](C)CO1 | 3.14

test: method code RP-HPLC, from DOI: 10.1081/jlc-120027619; conditions: pH 3.1

Row | SMILES | logD
2 | C[C@H]1COC2=C1C(=O)C(=O)c1c2ccc2c1CCCC2(C)C | 4.72
3 | O=C(O)C(O)Cc1ccc(O)c(O)c1 (configuration not stated) | 0.11
4 | O=C1c2cccc(O)c2C(=O)c2c(O)cc(CO)cc21 | 3.18
5 | Cc1cc(O)c2c(c1)C(=O)c1cc(O)cc(O)c1C2=O | 4.48
6 | O=c1c(-c2ccc(O)cc2)coc2c([C@@H]3O[C@H](CO)[C@@H](O)[C@H](O)[C@H]3O)c(O)ccc12 | 1.34
7 | O=C(O)c1cc(O)c2c(c1)C(=O)c1cccc(O)c1C2=O | 3.68
8 | Cc1coc2c1C(=O)C(=O)c1c-2ccc2c1CCCC2(C)C | 5.4
9 | Cc1coc2c1C(=O)C(=O)c1c-2ccc2c(C)cccc12 | 4.65
10 | COc1cc(O)c2c(c1)C(=O)c1cc(C)cc(O)c1C2=O | 4.93
11 | O=Cc1ccc(O)c(O)c1 | 0.82
12 | Cc1cc(O)c2c(c1)C(=O)c1cccc(O)c1C2=O | 4.39
